Measurements as given in patent US11021470B2, “2-substituted quinazoline compounds comprising a substituted heterocyclic group and methods of use thereof” (Araxes Pharma LLC, priority 2015, dated 2021).

Target: T1, KRAS G12C 1-169, his-tagged protein, GDP-loaded (Homo sapiens, UniProt P01116, G12C)
T1 construct: KRAS G12C 1-169, his-tagged protein, GDP-loaded
Experiment: KRAS G12C covalent binding (% modification) by mass spectrometry, ten or three minute incubation
Method: Test compounds were prepared as 10 mM stock solutions in DMSO (Fisher cat #BP-231-100). KRAS G12C 1-169, his-tagged protein, GDP-loaded was diluted to […] in buffer (20 mM Hepes, 150 mM NaCl, 1 mM MgCl2). Compounds were tested for activity as follows:
Compounds were diluted to 50× final test concentration in DMSO in 96-well storage plates. Compound stock solutions were vortexed before use and observed carefully for any sign of precipitation. Dilutions were as follow: • For 100 μM final compound concentration, compounds were diluted to 5000 μM (5 μl 10 mM compound stock+5 μl DMSO and mixed well by pipetting. • For 30 μM final compound concentration, compounds were diluted to 1500 μM (3 μl 10 mM compound stock+17 μl DMSO) and mixed well by pipetting. • For 10 μM final compound concentration, compounds were diluted to 500 μM (2 μl 10 mM compound stock+38 μl DMSO) and mixed well by pipetting. 49 μl of the stock protein solution was added to each well of a 96-well PCR plate (Fisher cat #1423027). 1 μl of the diluted 50× compounds were added to appropriate wells in the PCR plate using 12-channel pipettor. Reactions were mixed carefully and thoroughly by pipetting up/down with a 200 μl multi-channel pipettor. […] 5 μl of 2% formic acid (Fisher cat #A117) in DI H2O was then added to each well followed by mixing with a pipette. The plate was then resealed with aluminum seal and stored on dry ice until analyzed as described below.
The above described assays were analyzed by mass spectrometry according to one of the following two procedures:
The MS instrument is set to positive polarity, 2 GHz resolution, and low mass (1700) mode and allowed to equilibrate for 30 minutes. The instrument is then calibrated, switched to acquisition mode and the appropriate method loaded.
After another 30 minute equilibration time, a blank batch (i.e., buffer) is run to ensure equipment is operating properly. The samples are thawed at 37° C. for 10 minutes, briefly centrifuged, and transfer to the bench top. Wells A1 and H12 are spiked with 1 μL 500 μM internal standard peptide, and the plates centrifuged at 2000×g for 5 minutes. The method is then run and masses of each individual well recorded.
The masses (for which integration data is desired) for each well are pasted into the platemap and exported from the analysis. Masses for the internal standards are exported as well. The data at 50 ppm is extracted for the +19 charge state, and identity of well A1 is assigned using the internal standard spike and integrated. Peak data is exported as a TOF list and the above steps are repeated individually, for the +20, 21, 22, 23, 24, and 25 charge states.
The masses and peak intensities of KRAS G12C protein species were measured using a Dionex RSLCnano system (Thermo Scientific) connected to a Q Exactive Plus mass spectrometer (Thermo Scientific).
[…] of sample was each loaded onto a Aeris™ 3.6 μm WIDEPORE C4 200 Å, LC Column 50×2.1 mm column maintained at 40° C. at a flow rate of 600 μl min^−1 with […] (0.1% formic acid in acetonitrile). The liquid chromatography conditions were 20% solvent B for 1 min, 20% to 60% solvent B for 1.5 min, 60% to 90% solvent for 0.5 min, 90% solvent B for 0.2 min, 90% to 20% solvent B for 0.2 min, and then equilibrated for 1.6 min before the following sample injection. The flow rate was maintained at 600 μl min^−1 throughout the sample analysis.
The mass spectrometer was operated in profile mode at a resolution of 17500, 5 microscans, using 50 msec max injection time and an AGC target of 1e6, and a full mass range from 800-1850 m/z was recorded. The HCD trapping gas was optimized for maximum sensitivity for intact proteins. The ionization method was electrospray ionization, which used a spray voltage of 4 kV, sheath gas flow set to 50 au, auxiliary gas flow set to 10 au and sweep gas flow set to 1 au. […]

[1] = covalent binding to KRAS G12C, % modification after a three minute incubation period
[2] = covalent binding to KRAS G12C after a ten minute incubation period

C=CC(=O)N1C[C@H](C)N(c2nc(OCCn3ccnc3C#N)nc3c(F)c(-c4c(O)cccc4F)c(Cl)cc23)C[C@H]1C (atropisomer, axis not shown) [Compound 278, 1-(2-(4-((2S,5R)-4-acryloyl-2,5-dimethylpiperazin-1-yl)-6-chloro-8-fluoro-7-((S)-2-fluoro-6-hydroxyphenyl)quinazolin-2-yloxy)ethyl)-1H-imidazole-2-carbonitrile]
Binding % [1]: ++ (++ indicates binding activity from 50 to 90%)

C=CC(=O)N1C[C@H](C)N(c2nc(OCCn3cnnc3)nc3c(F)c(-c4c(O)cccc4F)c(Cl)cc23)C[C@H]1C (atropisomer, axis not shown) [Compound 280, 1-((2R,5S)-4-(2-(2-(4H-1,2,4-triazol-4-yl)ethoxy)-6-chloro-8-fluoro-7-((S)-2-fluoro-6-hydroxyphenyl)quinazolin-4-yl)-2,5-dimethylpiperazin-1-yl)prop-2-en-1-one]
Binding % [1]: +++ (+++ indicates binding activity greater than 90%)

C=CC(=O)N1C[C@H](C)N(c2nc(OCC(C)(C)C#N)nc3c(F)c(-c4c(O)cccc4F)c(Cl)cc23)C[C@H]1C (atropisomer, axis not shown) [Compound 282, 3-((4-((2S,5R)-4-acryloyl-2,5-dimethylpiperazin-1-yl)-6-chloro-8-fluoro-7-((S)-2-fluoro-6-hydroxyphenyl)quinazolin-2-yl)oxy)-2,2-dimethylpropanenitrile]
Binding % [1]: ++ (++ indicates binding activity from 50 to 90%)

C=CC(=O)N1C[C@H](C)N(c2nc(OCCc3cncn3C)nc3c(F)c(-c4c(O)cccc4F)c(Cl)cc23)C[C@H]1C (atropisomer, axis not shown) [Compound 284, 1-((2R,5S)-4-(6-chloro-8-fluoro-7-((S)-2-fluoro-6-hydroxyphenyl)-2-(2-(1-methyl-1H-imidazol-5-yl)ethoxy)quinazolin-4-yl)-2,5-dimethylpiperazin-1-yl)prop-2-en-1-one]
Binding % [1]: +++ (+++ indicates binding activity greater than 90%)

C=CC(=O)N1C[C@H](C)N(c2nc(OCCc3nccn3C)nc3c(F)c(-c4c(O)cccc4F)c(Cl)cc23)C[C@H]1C (atropisomer, axis not shown) [Compound 288, 1-((2R,5S)-4-((S)-6-chloro-8-fluoro-7-(2-fluoro-6-hydroxyphenyl)-2-(2-(1-methyl-1H-imidazol-2-yl)ethoxy)quinazolin-4-yl)-2,5-dimethylpiperazin-1-yl)prop-2-en-1-one]
Binding % [1]: +++ (+++ indicates binding activity greater than 90%)

C=CC(=O)N1C[C@H](C)N(c2nc(OCCc3ncc(C)n3C)nc3c(F)c(-c4c(O)cccc4F)c(Cl)cc23)C[C@H]1C (atropisomer, axis not shown) [Compound 289, 1-((2R,5S)-4-((S)-6-chloro-2-(2-(1,5-dimethyl-1H-imidazol-2-yl)ethoxy)-8-fluoro-7-(2-fluoro-6-hydroxyphenyl)quinazolin-4-yl)-2,5-dimethylpiperazin-1-yl)prop-2-en-1-one]
Binding % [1]: +++ (+++ indicates binding activity greater than 90%)

C=CC(=O)N1C[C@H](C)N(c2nc(N3CC(N(C)C)C3)nc3c(F)c(-c4c(O)cccc4F)c(Cl)cc23)C[C@H]1C [Compound 24, 1-((2R,5S)-4-(6-chloro-2-(3-(dimethylamino)azetidin-1-yl)-8-fluoro-7-(2-fluoro-6-hydroxyphenyl)quinazolin-4-yl)-2,5-dimethylpiperazin-1-yl)prop-2-en-1-one]
Binding % [2]: ++ (++ indicates binding activity from 50 to 90%)

C=CC(=O)N1C[C@H](C)N(c2nc(OCCN(CC)CC)nc3c(F)c(-c4c(O)cccc4F)c(Cl)cc23)C[C@H]1C [Compound 48, 1-((2R,5S)-4-(6-chloro-2-(2-(diethylamino)ethoxy)-8-fluoro-7-(2-fluoro-6-hydroxyphenyl)quinazolin-4-yl)-2,5-dimethylpiperazin-1-yl)prop-2-en-1-one]
Binding % [2]: ++ (++ indicates binding activity from 50 to 90%)

C=CC(=O)N1C[C@H](C)N(c2nc(N3CC(N(C)C)C3)nc3c(F)c(-c4c(C)ccc5[nH]ncc45)c(Cl)cc23)C[C@H]1C [Compound 54, 1-((2R,5S)-4-(6-chloro-2-(3-(dimethylamino)azetidin-1-yl)-8-fluoro-7-(5-methyl-1H-indazol-4-yl)quinazolin-4-yl)-2,5-dimethylpiperazin-1-yl)prop-2-en-1-one]
Binding % [2]: +++ (+++ indicates binding activity greater than 90%)

C=CC(=O)N1C[C@@H](C)N(c2nc(N3CC(N(C)C)C3)nc3c(F)c(-c4c(O)cccc4F)c(Cl)cc23)C[C@H]1C [Compound 80, 1-((2R,5R)-4-(6-chloro-2-(3-(dimethylamino)azetidin-1-yl)-8-fluoro-7-(2-fluoro-6-hydroxyphenyl)quinazolin-4-yl)-2,5-dimethylpiperazin-1-yl)prop-2-en-1-one]
Binding % [2]: + (+ indicates binding activity greater than 0% and up to 50%)

C=CC(=O)N1C[C@@H](C)N(c2nc(N3CC(N(C)C)C3)nc3c(F)c(-c4c(O)cccc4F)c(Cl)cc23)C[C@@H]1C [Compound 81, 1-((2S,5R)-4-(6-chloro-2-(3-(dimethylamino)azetidin-1-yl)-8-fluoro-7-(2-fluoro-6-hydroxyphenyl)quinazolin-4-yl)-2,5-dimethylpiperazin-1-yl)prop-2-en-1-one]
Binding % [2]: + (+ indicates binding activity greater than 0% and up to 50%)

C=CC(=O)N1CCN(c2nc(N3CC(N(C)C)C3)nc3c(F)c(-c4c(O)cccc4F)c(Cl)cc23)C[C@@H]1C [Compound 82, 1-((2S)-4-(6-chloro-2-(3-(dimethylamino)azetidin-1-yl)-8-fluoro-7-(2-fluoro-6-hydroxyphenyl)quinazolin-4-yl)-2-methylpiperazin-1-yl)prop-2-en-1-one]
Binding % [2]: ++ (++ indicates binding activity from 50 to 90%)

C=CC(=O)N1C[C@@H](C)N(c2nc(N3CC(N(C)C)C3)nc3c(F)c(-c4c(O)cccc4F)c(Cl)cc23)C[C@H]1C [Compound 86, 1-((2R,5R)-4-(6-chloro-2-(3-(dimethylamino)azetidin-1-yl)-8-fluoro-7-(2-fluoro-6-hydroxyphenyl)quinazolin-4-yl)-2,5-dimethylpiperazin-1-yl)prop-2-en-1-one]
Binding % [1]: + (+ indicates binding activity greater than 0% and up to 50%)

C=CC(=O)N1C[C@@H](C)N(c2nc(N3CC(N(C)C)C3)nc3c(F)c(-c4c(O)cccc4F)c(Cl)cc23)C[C@@H]1C [Compound 87, 1-((2S,5R)-4-(6-chloro-2-(3-(dimethylamino)azetidin-1-yl)-8-fluoro-7-(2-fluoro-6-hydroxyphenyl)quinazolin-4-yl)-2,5-dimethylpiperazin-1-yl)prop-2-en-1-one]
Binding % [1]: + (+ indicates binding activity greater than 0% and up to 50%)

C=CC(=O)N1C[C@H](C)N(c2nc(OCCN3CC(F)(F)C3)nc3c(F)c(-c4c(O)cccc4F)c(Cl)cc23)C[C@H]1C [Compound 89, 1-((2R,5S)-4-(6-chloro-2-(2-(3,3-difluoroazetidin-1-yl)ethoxy)-8-fluoro-7-((R)-2-fluoro-6-hydroxyphenyl)quinazolin-4-yl)-2,5-dimethylpiperazin-1-yl)prop-2-en-1-one]
Binding % [1]: + (+ indicates binding activity greater than 0% and up to 50%)
